45 compounds from US20240293380A1, “PROTEASE INHIBITORS AND METHODS OF USE” (priority 2021, published 2024) can be followed below.

One may read the IC50 as the concentration at which inhibition is half-maximal. Read a high IC50 as a need for much substance.

For the assay, the target named is SARS-CoV-2 3CLpro (Severe acute respiratory syndrome coronavirus 2 (2019-nCoV) (SARS-CoV-2), UniProt P0DTD1). The assay is classed as biochemical.
Compound `O=C(Cc1cncc2ccccc12)N(Cc1cncc(Cl)c1)c1ccc(-c2c[nH]cn2)cc1` [Compound 17] gave a 50% inhibitory concentration (IC50) of 101 nM.

For the compound `O=C(Cc1cncc2ccccc12)N(Cc1cccc(Cl)c1F)c1ccc(-c2c[nH]cn2)cc1` [Compound 16], half-maximal inhibition (IC50) was put at 370 nM.

`O=C(Cc1cncc2ccccc12)N(Cc1cc(F)ccc1F)c1ccc(-c2c[nH]cn2)cc1` [Compound 23] had a half-maximal inhibitory concentration (IC50) of 159 nM.

`O=C1CNCCN1c1ccc(N(Cc2cc(F)cc(F)c2)C(=O)Cc2cncc3ccccc23)cc1` [Compound 35] had an IC50 of 481 nM.

`O=C1NC(CC(=O)N(Cc2cc(F)cc(Cl)c2)c2ccc(-c3c[nH]cn3)cc2)c2ccccc21` (stereo not drawn) [Compound 50] returned a half-inhibitory concentration (IC50) of 30800 nM.

For the compound `N#Cc1ccc(N(Cc2cc(F)cc(F)c2)C(=O)Cc2cncc3ccccc23)cc1` [Compound 38], inhibition was half-maximal at 1250 nM (IC50).

As for `O=C(Cc1cncnc1)N(Cc1cc(F)cc(Cl)c1)c1ccc(-c2c[nH]cn2)cc1` [Compound 48], the IC50 was 542 nM.

For `O=C(Cc1cccnc1)N(Cc1cc(F)cc(Cl)c1)c1ccc(-c2c[nH]cn2)cc1` [Compound 43], half-maximal inhibition (IC50) required 188 nM.

Consider `C[C@H](c1cc(F)cc(Cl)c1)N(C(=O)Cc1cncc2ccccc12)c1ccc(-c2c[nH]cn2)cc1` [Compound 14], for which the half-maximal inhibitory concentration (IC50) was 76 nM.

Compound `COc1ccc(F)cc1CN(C(=O)Cc1cncc2ccccc12)c1ccc(-c2c[nH]cn2)cc1` [Compound 53] returned a half-maximal inhibitory concentration (IC50) of 179 nM.

In the case of `O=C(Cc1cccnc1)N(Cc1cccc(Cl)c1)c1ccc(-c2c[nH]cn2)cc1` [Compound 44], half-maximal inhibition (IC50) was put at 414 nM.

Take `O=C(Cc1cccnn1)N(Cc1cc(F)cc(Cl)c1)c1ccc(-c2c[nH]cn2)cc1` [Compound 52]: the half-maximal inhibitory concentration (IC50) is 389 nM.

As to `Cc1cncc(CC(=O)N(Cc2cc(F)cc(Cl)c2)c2ccc(C3CNC3)cc2)c1` [Compound 80], the IC50 was determined as 110 nM.

`O=C(Cc1cncc2ccccc12)N(Cc1cncc(F)c1)c1ccc(-c2c[nH]cn2)cc1` [Compound 40] displayed a 50% inhibitory concentration (IC50) of 53 nM.

In turn, `O=C(Cc1nnc2ccccn12)N(Cc1cc(F)cc(F)c1)c1ccc(-c2c[nH]cn2)cc1` [Compound 27] had a 50% inhibitory concentration (IC50) of 209 nM.

In turn, `O=C(Cc1cncc2ccccc12)N(Cc1cc(F)cc(F)c1)c1ccc(C2=CCNC2)cc1` [Compound 56] showed an IC50 of 139 nM.

Regarding `NCc1ccc(N(Cc2cc(F)cc(F)c2)C(=O)Cc2cncc3ccccc23)cc1` [Compound 74], half-maximal inhibition (IC50) was put at 76 nM.

Regarding `O=C(Cc1nncc2ccccc12)N(Cc1cc(F)cc(Cl)c1)c1ccc(-c2c[nH]cn2)cc1` [Compound 73], the IC50 was found to be 61 nM.

Compound `NC(=O)c1ccc(N(Cc2cc(F)cc(F)c2)C(=O)Cc2cncc3ccccc23)cc1` [Compound 51] displayed an IC50 of 100 nM.

On to `O=C(Cc1nnc2ccccn12)N(Cc1cccc(F)c1)c1ccc(-c2c[nH]cn2)cc1` [Compound 47], for which 621 nM corresponded to half-maximal inhibition (IC50).

The compound `O=C(Cc1cccnn1)N(Cc1cccc(Cl)c1)c1ccc(-c2cn[nH]c2)cc1` [Compound 6, N-[(3-chlorophenyl)methyl]-N-[4-(1H-pyrazol-4-yl)phenyl]-2-pyridazin-3-yl-acetamide] yielded an IC50 of 5000 nM.

`O=C(Cc1cncc(C2CC2)c1)N(Cc1cc(F)cc(Cl)c1)c1ccc(-c2c[nH]cn2)cc1` [Compound 71] showed a half-inhibitory concentration (IC50) of 115 nM.

The compound `O=C(Cc1cncc2ccccc12)N(Cc1cccc(Cl)c1)c1ccc(-c2cn[nH]c2)cc1` [Compound 2, N-[(3-chlorophenyl)methyl]-2-(4-isoquinolyl)-N-[4-(1H-pyrazol-4-yl)phenyl]acetamide] displayed an IC50 of 30 nM.

For the compound `COc1cc(Cl)cc(CN(C(=O)Cc2cncc3ccccc23)c2ccc(-c3c[nH]cn3)cc2)c1` [Compound 19], it took 100 nM to reach half-maximal inhibition (IC50).

Compound `O=C(Cc1cncc(C2CC2)c1)N(Cc1cc(F)cc(F)c1)c1ccc(-c2c[nH]cn2)cc1` [Compound 67] showed an IC50 of 161 nM.

Consider `O=C(Cc1cncc2ccccc12)N(Cc1cc(F)cc(Cl)c1)c1ccc(C2CNC2)cc1` [Compound 72], for which the concentration for half-maximal inhibition (IC50) is 56 nM.

Turning to `O=C(Cc1cnccc1Cl)N(Cc1cc(F)cc(Cl)c1)c1ccc(-c2c[nH]cn2)cc1` [Compound 76], the midpoint of inhibition, the IC50, lay at 311 nM.

`O=C(Cc1nnc2ccccn12)N(Cc1cccc(F)c1F)c1ccc(-c2c[nH]cn2)cc1` [Compound 24]: the IC50 came out at 1300 nM.

Regarding `O=C(Cc1nnc2ccc(F)cn12)N(Cc1cccc(Cl)c1)c1ccc(-c2cn[nH]c2)cc1` [Compound 3, N-[(3-chlorophenyl)methyl]-2-(6-fluoro-[1,2,4]triazolo[4,3-a]pyridin-3-yl)-N-[4-(1H-pyrazol-4-yl)phenyl]acetamide], 3360 nM corresponded to half-maximal inhibition (IC50).

In the case of `O=C(Cc1cncc(C2CC2)c1)N(Cc1cc(F)cc(Cl)c1)c1ccc(C2CNC2)cc1` [Compound 79], the IC50 came to 112 nM.

Compound `C[C@H](c1cc(F)cc(Cl)c1)N(C(=O)Cc1nnc2ccccn12)c1ccc(-c2c[nH]cn2)cc1` [Compound 13] gave an IC50 of 587 nM.

`COc1cc(F)cc(CN(C(=O)Cc2cncc3ccccc23)c2ccc(-c3c[nH]cn3)cc2)c1` [Compound 54] returned an IC50 of 90 nM.

As to `O=C(Cc1cncc2ccccc12)N(Cc1cc(F)cc(Cl)c1)c1ccc(-c2c[nH]cn2)cn1` [Compound 29], the IC50 turned out to be 40 nM.

Consider `O=C(Cc1cncc2ccccc12)N(Cc1cccc(F)c1)c1ccc(-c2c[nH]cn2)cc1` [Compound 26], for which inhibition was half-maximal at 351 nM (IC50).

For `O=C(Cc1cncc2ccccc12)N(Cc1cccc(F)c1F)c1ccc(-c2c[nH]cn2)cc1` [Compound 25], the IC50 came out at 184 nM.

On to `O=C(Cc1nnc2ccccn12)N(Cc1cc(F)cc(Cl)c1)c1ccc(-c2c[nH]cn2)cc1` [Compound 9, N-[(3-chloro-5-fluoro-phenyl)methyl]-N-[4-(1H-imidazol-4-yl)phenyl]-2-([1,2,4]triazolo[4,3-a]pyridin-3-yl)acetamide], for which the half-inhibitory concentration (IC50) is 71 nM.

`O=C(Cc1cncc(F)c1)N(Cc1cncc(F)c1)c1ccc(C2CNC2)cc1` [Compound 83]: half-maximal inhibition (IC50) required 5220 nM.

As to `CC(C)(C)NC(=O)C(c1cc(F)cc(F)c1)N(C(=O)Cc1cncc2ccccc12)c1ccc(-c2c[nH]cn2)cc1` (stereo not drawn) [Compound 64], the concentration for half-maximal inhibition (IC50) is 231 nM.

`O=C(Cc1nnc2ccccn12)N(Cc1cc(F)ccc1F)c1ccc(-c2c[nH]cn2)cc1` [Compound 22] returned an IC50 of 786 nM.

With `O=C(Cc1cncc(F)c1)N(Cc1cncc(F)c1)c1ccc(-c2c[nH]cn2)cc1` [Compound 81], the IC50 was 1310 nM.

As for `O=C(Cc1cnccn1)N(Cc1cccc(Cl)c1)c1ccc(-c2cn[nH]c2)cc1` [Compound 5, N-[(3-chlorophenyl)methyl]-2-pyrazin-2-yl-N-[4-(1H-pyrazol-4-yl)phenyl]acetamide], the midpoint of inhibition, the IC50, lay at 5220 nM.

The compound `O=C(Cc1cncc2ccccc12)N(Cc1cc(F)cc(F)c1)c1ccc(C2CNC2)cc1` [Compound 62] gave an IC50 of 69 nM.

`O=C(Cc1cnccn1)N(Cc1cc(F)cc(Cl)c1)c1ccc(-c2c[nH]cn2)cc1` [Compound 55] gave an IC50 of 2040 nM.

In turn, `CC(C)(C)CN(C(=O)Cc1cncc2ccccc12)c1ccc(-c2c[nH]cn2)cc1` [Compound 45] returned an IC50 of 356 nM.

Compound `Cc1ccc2nnc(CC(=O)N(Cc3cc(F)cc(Cl)c3)c3ccc(-c4c[nH]cn4)cc3)n2n1` [Compound 42] had an IC50 of 250 nM.
